≈ marks a conversion by molar mass, not a printed value. Where two headings read alike, the source gives them in different places.
Legend:
Format in all cases: physicochemical
[1] = Stability of the active ingredient (pH, storage)
Description: Suitable secondary criteria are for instance the absolute oral bioavailability, typically denoted as a percentage of the maximum bioavailability of 100% which is defined as the bioavailability of the intravenous formulation as measured in a living being such as those used in animal trials or in human trials. Bioavailability is measured as the AUC (Area Under Curve) of the plasma concentration of a drug collected over a certain period of time, which depends on the half-life of the drug. Another suitable criterion is the stability data (such as temperature sensibility and pH range of stability expressed in time units). This is expressed as a duration in days/months/years where the compound has not undergone unacceptable levels of degradation (<10%) in specific conditions e.g. low pH.

[2] = Particle size of precipitate after about 100 fold dilution of the NADES:PPI formulation with intestinal medium (FaSSIF), optical microscopy
Description: All PPI's that are soluble at approximately a PPI to active ingredient ratio of 1 to 5 are selected for the next stage of testing. A small sample of for example 100 µl is taken from the NADES:PPI mixture and the appropriate mass of active ingredient is solubilized in the system as above. Each NADES: PPI: active ingredient sample is diluted approximately 100 fold with intestinal medium solutions e.g. Fast State Simulated Intestinal Fluid (FaSSIF). The system with the smallest particle size over a 2 hour period is determined to be the best performing formulation. The particle size is determined using visual inspection and optical microscopy.
The precipitant molecules should in this light have a size less than approximately 10/µm, preferably less than 5µm and ideally less than about 1µm. These sizes are measured at 10 minute intervals over a 2 hours period to analyse the crystal growth. The crystal sizes are monitored using an optical microscope in initial samples; yet are more accurately measured after 2 hours using a Malvern Mastersizer 3000 or similar particle sizing equipment.
Below are microscope images of formulations of flufenamic acid diluted with intestinal medium. The dilution is approximately similar to 1ml of formulation being released into the intestine. The goal is to have sufficiently small particle sizes for a sufficiently long period of time to promote drug absorption. Figures 1, 2 and 3 show progressions in particle size of flufenamic acid in formulations designed using the present invention.
The following example is of a poorly water-soluble molecule, Paclitaxel, and the process of designing a system using the aforementioned invention. […] The second objective was to select one or more PPI's capable of controlling the size of precipitant upon an approximately 100 fold dilution with intestinal medium. The target dose of the formulation was 30mg/ml. The variation in particle size between formulations was analysed with visual inspection. The best performing formulations were compared with a size calibrated optical microscope and camera.

[3] = Solubility of the active ingredient in comparable solvents (polar to nonpolar)
Description: These values are expressed in mg/ml and determined at a temperature of 25°C at 1 atm. In a preferred embodiment, also the solubility is determined in water-based systems having different pH's, or having different temperatures; and in water-based systems wherein co-solvents are present; and in stomach or intestinal media. Solubility information in a broad range of solvents (including oils, dichloromethane, methanol), is useful because the knowledge of in which type of solvents the active ingredient dissolves well, helps in designing a NADES with similar properties.

[4] = Solubility of the active ingredient in NADES; settings: thermodynamic from solid
Description: Subsequently, selected constituents are weighed out in the appropriate molar ratios and corresponding masses and are added to a suitable receptacle, such as a small bottle or other small vessel. In the receptacle generally a stirring element is added, such as a stirring flea. If two or more solid constituents are present, these are generally heated, for instance to about 70°C. When at least one liquid constituent is present, it is generally not needed to heat the system to temperatures higher than about 50°C. The constituents are stirred. When two (or more) solid constituents are mixed, this often leads to high or very high viscosities, in which case addition of some water or other liquid excipients such as propylene glycol is recommended. The stirring is continued until a clear liquid is formed.
After a clear liquid is obtained, it is preferred to let it cool and sit for 24 hours or so, as a check for stability. If a NADES is not stable at RT (room temperature; in other words, if the eutectic point is higher than RT at the selected molar ratio), one can try adding additional constituents or trying a different molar ratio.
Once cooled, the pH of the system is measured. An acidic NADES will in general be good at solubilizing a basic active ingredient due to protonation and vice versa. The stability can also be influenced by the pH, where usually a range of pH values is given that results in the best stability.
Usually it is apparent within an hour whether or not a solvent is going to achieve any worthwhile solubility value. If the solute sticks to the side of the receptacle and/or floats on top, investigation into this solvent can be terminated. If the solute makes for a cloudy solution, further dilution may yield success.

[5] = pKa of the active ingredient
Text: Further, the analysis also at least involves determination of acidity/basicity of the compound by determining the pKa value by standard methods. In the case of previously analyzed compounds such information typically available in published literature.

[6] = NADES, organic solvent or mixture, Choline Chloride: Propylene Glycol (1:3), pH 6.71

## CC(=O)O[C@H]1C(=O)[C@@]2(C)[C@H]([C@H](OC(=O)c3ccccc3)[C@]3(O)C[C@H](OC(=O)[C@H](O)[C@@H](NC(=O)c4ccccc4)c4ccccc4)C(C)=C1C3(C)C)[C@]1(OC(C)=O)CO[C@@H]1C[C@@H]2O [Paclitaxel]
[1]
  pH range in which most stable: 3-6 pH
[1]; basic pH (8)
  Stability at basic pH: degrades quickly
[2]; 30 mg/ml in choline chloride: propylene glycol (1:3) with 30 mg/ml hypromellose acetate succinate solubilized in FaSSIF, 40x magnification
  Particle size result (microscope photograph, Fig. 4): good result
[2]; formulation diluted with intestinal medium, particles less than 1 µm not detected by optical microscopy
  Particle size, majority of observable particles (Fig. 4): less than 10 µm
[3]; caster oil, 25 °C, oil or lipid, read-out: approximate solubility in caster oil
  solubility: 15 to 20 mg/mL (≈ 17.6 to 23.4 mM)
[3]; ethanol
  solubility in ethanol: 1.5 mg/mL (≈ 1.76 mM)
[3]; olive oil, 25 °C, oil or lipid, read-out: approximate solubility in olive oil
  solubility: 15 to 20 mg/mL (≈ 17.6 to 23.4 mM)
[4]; [6]
  solubility: 30 mg/mL (≈ 35.1 mM)
[4]; aqueous with cosolvent or surfactant or cyclodextrin, Malic acid: Beta alanine: Water (1:1:2), pH 3.43, acidic NADES
  solubility: < 1 mg/mL
[4]; aqueous with cosolvent or surfactant or cyclodextrin, Sucrose: Glucose: Fructose: Water (1:1:1:8), pH 3.36, polar NADES
  solubility: < 1 mg/mL
[4]; pH 9.8, aqueous with cosolvent or surfactant or cyclodextrin, Choline Chloride: Urea: Water (1:1:2), pH 9.80, polar NADES
  solubility: < 1 mg/mL
[5]
  pKa: 11.9
[5]; read-out: pKa
  pKa: 11.9

## O=C(O)c1ccccc1Nc1cccc(C(F)(F)F)c1 [Flufenamic acid]
[1]; both acidic and basic aqueous solutions, period of 3 months at RT
  Stability: stable
[2]; 28 mg/ml in choline chloride: propylene glycol (1:3) with 14 mg/ml Polyethylene Glycol-4000 solubilized in FaSSIF, 40x magnification
  Particle size result (microscope photograph, Fig. 2): poor result
[2]; 28 mg/ml in choline chloride: propylene glycol (1:3) with 56 mg/ml Polyethylene Glycol-4000 solubilized in FaSSIF, 40x magnification
  Particle size result (microscope photograph, Fig. 3): good result
[3]; cyclohexane
  solubility in cyclohexane: very low
[3]; dimethyl sulfoxide, 25 °C, organic solvent or mixture, read-out: solubility in dimethyl sulfoxide
  solubility: > 50 mg/mL
[3]; ethanol, 25 °C, organic solvent or mixture, read-out: solubility in ethanol
  solubility: > 50 mg/mL
[3]; hexane
  solubility in hexane: very low
[3]; mineral oil (paraffin oil)
  solubility in mineral oil (paraffin oil): very low
[3]; water, 25°C and 1atm
  Water solubility: very low
[3]; water, 25°C and 1atm, read-out: Water solubility
  solubility: 0.009 mg/mL (≈ 0.032 mM)
[4]; [6]
  solubility: 28 mg/mL (≈ 99.6 mM)
[4]; aqueous with cosolvent or surfactant or cyclodextrin, Choline chloride: Lactic acid: water (2:1:2), pH 2.19, polar NADES
  solubility: < 1 mg/mL
[4]; organic solvent or mixture, Acetamide: Propylene Glycol (1:2), pH 6.47, basic NADES
  solubility: 93.1 mg/mL (≈ 331 mM)
[4]; organic solvent or mixture, Acetamide: Propylene Glycol (1:3), pH 6.89, basic NADES
  solubility: 50 mg/mL (≈ 178 mM)
[4]; organic solvent or mixture, Choline Chloride: Ethylene Glycol (1:3), pH 6.08, neutral NADES
  solubility: 28 mg/mL (≈ 99.6 mM)
[4]; organic solvent or mixture, Choline chloride: glucose: butylene glycol (2:1:1), polar NADES
  solubility: < 1 mg/mL
[4]; organic solvent or mixture, Sorbitol: Urea (1:1), pH 8.3, polar NADES
  solubility: < 1 mg/mL
[5]; read-out: pKa
  pKa: 3.65
